Patent US12121522B2, “Methods of treating cancer with an mTOR inhibitor” (Revolution Medicines, Inc., priority 2022, dated 2024)

Tests used:
[1] = test system: HN009 HNSCC PDX; experiment: HN009 HNSCC patient-derived xenograft; format: in vivo, mouse
Text: FIGS. 3A-3B show Antitumor Activity of RMC-5552 in the HN009 Patient-Derived Xenograft Model of Human HNSCC Following Once-Weekly Administration. Abbreviations: ANOVA=analysis of variance; IP=intraperitoneal; QW=once weekly. […] Each animal represented as a separate bar. The number of tumor regressions out of total mice in that group is shown (tumor regression defined as >10% reduction in tumor volume from starting volume) in each group.
(§1) The antitumor activity of RMC-5552 as a single agent against tumors predicted to be dependent on the mTOR pathway and/or bearing specific PI3K/mTOR pathway-activating mutations (i.e., PIK3CA^mut, phosphatase and tensin homolog [PTEN^LOF], or co-mutation of both and tuberous sclerosis complex [TSC^LOF]) was evaluated in selected CDX and/or PDX models
(§2) Table 1. RMC-5552 was administered IP once weekly at 1, 3, 10, and 30 mg/kg. In the breast cancer MCF7 PIK3CA^[…] model, a higher dose of 50 mg/kg once weekly and an alternate dose regimen of 30 mg/kg every 10 days were also evaluated.

[2] = test system: murine models of mTORC1-activated cancers; conditions: mouse, in vivo
Procedure: as §1

[3] = test system: BXF 2211 TSC1^-/- bladder cancer; experiment: BXF 2211 bladder cancer xenograft; format: in vivo, mouse
Procedure: as §1, §2

[4] = test system: 4EBP3 mRNA expression; experiment: 4EBP3 mRNA expression in whole blood; format: in vivo, human; conditions: cohorts treated with at least 3.0 mg; sustained over a 6-hour period
Text: Whole blood was collected from all subjects in dose escalation at CID1 prior to dosing, and 6 timepoints after EOI. In each sample, 4EBP3 mRNA expression was quantified as a pharmacodynamic indicator of mTORC1 inhibition.

[5] = Clinical safety (TEAEs, TRAEs, SAEs, DLTs), study RMC-5552-001
Text: RMC-5552 is currently being evaluated as a monotherapy in a FIH, dose-escalation, Phase 1/1b study (RMC-5552-001) in adult subjects with advanced relapsed/refractory solid tumors (see Example 3 for additional study protocol details.) The purpose of this study is to evaluate safety, tolerability, preliminary efficacy, PK, and pharmacodynamics of RMC-5552 monotherapy. The primary objective is to characterize the safety and tolerability of RMC-5552 monotherapy and to define the MTD and the Recommended Phase 2 Dose (RP2DS) and schedule for RMC-5552 monotherapy in subjects with relapsed/refractory solid tumors.
Adverse events (AEs) were based on the Medical Dictionary for Regulatory Activities (MedDRA) preferred terms and included the grouped preferred term of stomatitis/mucositis using mucosal inflammation, oral pain, and stomatitis. […] Of note, the grouped term of stomatitis/mucositis comprised events of (based on MedDRA PT) mucosal inflammation, oral pain, and stomatitis.
In the Dose-Escalation Phase, assessment of safety and tolerability will be the primary endpoints and will be directly measured by the incidence of dose-limiting toxicities (DLTs), treatment-emergent adverse events (TEAEs), and serious adverse events (SAEs). The starting dose of RMC-5552 will be 1.6 mg once weekly (QW) via intravenous (IV) infusion. The first cycle of treatment (i.e., first 21 days after treatment initiation) constitutes the DLT evaluation period.
A DLT is defined as a toxicity that is considered at least possibly related to study intervention, occurs within the first 21 days of treatment initiation (i.e., during Cycle 1), and meets at least 1 of the following criteria (with severity graded according to Common Terminology Criteria for Adverse Events [CTCAE] v5): […]

[6] = 10 mg QW (2-hour infusion) 21-Day cycle (N = 5)

## CO[C@H]1C[C@@H]2CC[C@@H](C)[C@@](O)(O2)C(=O)C(=O)N2CCCC[C@H]2C(=O)O[C@H]([C@H](C)C[C@@H]2CC[C@@H](OC(=O)NCCOCCOCCOCCOCCOCCOCCOCCOCCC(=O)N3CCc4cc(Cn5nc(-c6ccc7oc(N)nc7c6)c6c(N)ncnc65)ccc4C3)[C@H](OC)C2)C[C@@H](O)[C@H](C)/C=C(\C)[C@@H](O)[C@@H](OC)C(=O)[C@H](C)C[C@H](C)/C=C/C=C/C=C/1C [RMC-5552]
[1]; 3 mg/kg IP QW
  TGI: 91%
[1]; 10 mg/kg IP QW
  tumor regression: 17% regression
[2]
  tolerability of doses and regimens: generally well-tolerated
[3]; 3 mg/kg IP QW
  tumor regression: 91% regression
[3]; 10 mg/kg IP QW
  tumor regression: 94% regression
[4]
  4EBP3 mRNA expression in whole blood: increased from baseline
[5]; 1.6 mg QW 21-Day cycle (N = 2)
  Treatment-emergent SAE Wound infection, number (%) of subjects: 0 subjects
[5]; 3 mg QW 21-Day cycle (N = 3)
  Treatment-emergent SAE Wound infection, number (%) of subjects: 0 subjects
[5]; 6 mg QW 21-Day cycle (N = 12)
  Treatment-emergent SAE Wound infection, number (%) of subjects: 0 subjects
[5]; 8 mg QW 21-Day cycle (N = 15)
  Treatment-emergent SAE Wound infection, number (%) of subjects: 1 subjects
[5]; [6]
  Treatment-emergent SAE Urinary tract infection, number (%) of subjects: 0 subjects
  Treatment-emergent SAE Wound infection, number (%) of subjects: 0 subjects
[5]; 12 mg QW 21-Day cycle (N = 2)
  Treatment-emergent SAE Wound infection, number (%) of subjects: 0 subjects
[5]; Overall (N = 39)
  Treatment-emergent SAE Urinary tract infection, number (%) of subjects: 1 subjects
  Treatment-emergent SAE Wound infection, number (%) of subjects: 1 subjects
[5]; human, in vivo
  DLT rate: (3.0%)
  Grade ≥3 TEAE: anemia: 15.4%
  Grade ≥3 TEAE: dysphagia: 5.1%
  Grade ≥3 TEAE: fatigue: 5.1%
  Grade ≥3 TEAE: rash (grouped term): 5.1%
  Grade ≥3 TEAE: stomatitis/mucositis: 10.3%
  Grade ≥3 TEAE: urinary tract infection: 5.1%
  Number of subjects with any SAE (treatment-emergent): 14 subjects
  SAEs assessed as treatment-related by investigators: No SAEs were assessed as treatment-related
  TEAE any grade: abdominal pain: 20.5%
  TEAE any grade: anemia: 25.6%
  TEAE any grade: decreased appetite: 43.6%
  TEAE any grade: diarrhea: 23.10%
  TEAE any grade: dyspnea: 28.20%
  TEAE any grade: fatigue: 61.5%
  TEAE any grade: headache: 20.5%
  TEAE any grade: nausea: 41.0%
  TEAE any grade: rash (grouped term): 28.20%
  TEAE any grade: vomiting: 30.80%
  TRAE: decreased appetite: 25%
  TRAE: diarrhea: 25%
  TRAE: fatigue: 25%
  TRAE: mucositis/stomatitis: 35%
  TRAE: nausea: 25%
  Treatment-emergent SAE Acute kidney injury, number (%) of subjects: 1 subjects
  Treatment-emergent SAE Anaemia, number (%) of subjects: 1 subjects
  Treatment-emergent SAE Anemia along with occlusion, number (%) of subjects: 1 subjects
  Treatment-emergent SAE Atrial fibrillation, number (%) of subjects: 1 subjects
  Treatment-emergent SAE Dehydration, number (%) of subjects: 1 subjects
  Treatment-emergent SAE Dyspnea, number (%) of subjects: 1 subjects
  Treatment-emergent SAE Embolism, number (%) of subjects: 1 subjects
  Treatment-emergent SAE Face Oedema, number (%) of subjects: 1 subjects
  Treatment-emergent SAE Failure to Thrive, number (%) of subjects: 1 subjects
  Treatment-emergent SAE Fatigue, number (%) of subjects: 1 subjects
  Treatment-emergent SAE Hypotension, number (%) of subjects: 1 subjects
  Treatment-emergent SAE Large intestinal obstruction, number (%) of subjects: 1 subjects
  Treatment-emergent SAE Lower gastrointestinal hemorrhage, number (%) of subjects: 1 subjects
  Treatment-emergent SAE Oedema peripheral, number (%) of subjects: 1 subjects
  Treatment-emergent SAE Pain in extremity, number (%) of subjects: 1 subjects
  Treatment-emergent SAE Pleural effusion, number (%) of subjects: 1 subjects
  Treatment-emergent SAE Pneumonia aspiration, number (%) of subjects: 1 subjects
  Treatment-emergent SAE Pneumonia, number (%) of subjects: 1 subjects
  Treatment-emergent SAE Pneumothorax, number (%) of subjects: 1 subjects
  Treatment-emergent SAE Rash maculopapular, number (%) of subjects: 1 subjects
  Treatment-emergent SAE Rectourethral fistula, number (%) of subjects: 1 subjects
  Treatment-emergent SAE Small intestinal obstruction, number (%) of subjects: 1 subjects
  Treatment-emergent SAE Small intestinal perforation, number (%) of subjects: 1 subjects
  Treatment-emergent SAE Stomatitis/mucositis, number (%) of subjects: 1 subjects
  Treatment-emergent SAE Vascular occlusion, number (%) of subjects: 1 subjects
  dose-limiting toxicities: no dose-limiting toxicities
  drug-related adverse event: decreased appetite: 32%
  drug-related adverse event: fatigue: 41%
  drug-related adverse event: nausea: 36%
  drug-related adverse event: stomatitis/mucositis: 41%
  drug-related adverse event: vomiting: 23%
  event of interest: edema peripheral: 10.3%
  event of interest: hyperglycemia: 7.7%
  event of interest: rash maculo-papular: 17.9%
  median duration of resolved stomatitis/mucositis events: 12.0 days
  median time to first onset of stomatitis/mucositis: 12.5 days
  n/N (DLT rate): 1/33
  related Grade 4 or 5 adverse events: No related Grade 4 or 5 adverse events
  treatment-emergent hyperglycemia, patients: 6.8%
